pIC50: −log10 of the molar value. Structures can show the parent of a compound that is named as a salt.

The test concerns the target T1, human renin (Homo sapiens, UniProt P00797).
T1 sequence (P00797 67-406): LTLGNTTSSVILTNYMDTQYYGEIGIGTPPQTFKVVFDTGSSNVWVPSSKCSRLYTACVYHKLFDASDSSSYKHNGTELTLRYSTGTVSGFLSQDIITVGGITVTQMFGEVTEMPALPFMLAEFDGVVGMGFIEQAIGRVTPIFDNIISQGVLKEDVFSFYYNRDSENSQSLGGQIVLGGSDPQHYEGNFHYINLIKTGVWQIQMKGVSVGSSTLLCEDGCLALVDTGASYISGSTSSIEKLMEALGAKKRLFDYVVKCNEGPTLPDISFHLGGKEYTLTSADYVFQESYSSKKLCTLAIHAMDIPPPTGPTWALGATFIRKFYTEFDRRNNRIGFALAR
Kind of test: In vitro test with pure human renin (angiotensin I production from human tetradecapeptide renin substrate, measured by RIA). The conditions noted are these: pure human renin, pH 7.4, three hours at 37° C. (less 4° C.), human tetradecapeptide substrate, angiotensin I by RIA; read-out: IC50 values (concentration of the inhibitor at which the enzymatic activity is inhibited by 50%). Format: biochemical. As to the method:
In vitro test with pure human renin
The test is carried out in Eppendorf test tubes. The incubation mixture consists of (1) 100 μl of human renin in buffer A (0.1M sodium phosphate solution, pH 7.4, containing 0.1% bovine serum albumin, 0.1% sodium azide and 1 mM ethylenediaminetetraacetic acid), sufficient for a renin activity of 2-3 ng of angiotensin l/ml/hr.; (2) 145 μl of buffer A: (3) 30 μl of 10 mM human tetradecapeptide renin substrate (hTD) in 10 mM hydrochloric acid: (4) […] of dimethyl sulphoxide with or without inhibitor and (5) 10 μl of a 0.03 molar solution of hydroxyquinoline sulphate in water.
The samples are incubated for three hours at 37° C. and, respectively, 4° C. in triplicate. 2×100 μl samples per test tube are used in order to measure the production of angiotensin I via RIA (standard radioimmunoassay; clinical assay solid phase kit). […] The production of angiotensin I is determined by the difference between the test at 37° C, and that at 4° C.
The following controls are carried out:
(a) Incubation of hTD samples without renin and without inhibitor at 37° C. and 4° C. The difference between these two values gives the base value of the angiotensin I production.
(b) Incubation of hTD samples with renin, but without inhibitor at 37° C. and 4° C. The difference between these values gives the maximum value of the angiotensin I production.
In each sample the base value of the angiotensin I production is subtracted from the angiotensin I production which is determined. The difference between the maximum value and the base value gives the value of the maximum substrate hydrolysis (=100%) by renin.
The IC50 values are determined from a linear regression curve from a logit-log plot.
With `c1ccc(COCCCOc2ccc([C@H]3[C@H](COCCN4CCOCC4)CNC[C@@H]3OCc3ccc4ccccc4c3)cc2)cc1` (relative stereo) [BB], the pIC50 is 8.52.
On to `CN1CCN(CCCNC(=O)OC[C@@H]2CNC[C@H](OCc3ccc4ccccc4c3)[C@H]2c2ccc(OCCCOCc3ccccc3)cc2)CC1` (relative stereo) [DD], for which the pIC50 is 9.00.
On to `OCC(O)COCc1ccc2cc(CO[C@H]3CNCC[C@@H]3c3ccc(OCCCOCc4ccccc4)cc3)ccc2c1` (mixture of isomers) [U, a mixture of (3RS,4RS)- and (3SR,4SR)-4-[4-(3-benzyloxy-propoxy)-phenyl]-3-[6-[(RS)-2,3-dihydroxy-propoxymethyl]-naphthalen-2-ylmethoxy]-piperidine], for which the pIC50 was 7.62.
As for `COc1ccc(CO[C@H]2CNC[C@@H](O)[C@@H]2c2ccc(OCCCOCc3ccccc3)cc2)cc1` (racemic) [Z, (3RS,4SR,5SR)-4-[4-(3-benzyloxy-propoxy)-phenyl]-3-(4-methoxy-benzyloxy)-piperidin-5-ol], the pIC50 was 9.00.
With `c1ccc(COCCCOc2ccc([C@H]3CCNC[C@@H]3OCc3ccc4c(c3)OCCO4)cc2)cc1` (racemic) [D, (3RS,4RS)-4-[4-(3-benzyloxy-propoxy)-phenyl]-3-(2,3-dihydro-benzo[1,4]dioxin-6-ylmethoxy)-piperidine], the pIC50 is 7.40.
With `COC[C@@H]1CNC[C@H](OCc2ccc3ccccc3c2)[C@H]1c1ccc(COCc2ccccc2)cc1` (racemic) [J, (3SR,4RS,5RS)-4-(4-benzyloxymethyl-phenyl)-3-methoxymethyl-5-(naphthalen-2-ylmethoxy)-piperidine], the pIC50 was 7.77.
Consider `COc1ccccc1COCCCOc1ccc([C@H]2CCNC[C@@H]2OCc2ccc3c(c2)NCCC3)cc1` (racemic) [YY, (3RS,4RS)-4-[4-[3-(2-methoxy-benzyloxy)-propoxy]-phenyl]-3-(1,2,3,4-tetrahydro-quinolin-7-ylmethoxy)-piperidine], for which the pIC50 was 9.30.
Under `OC[C@@H]1CNC[C@H](OCc2ccc3ccccc3c2)[C@H]1c1ccc(OCCCOCc2ccccc2)cc1` (relative stereo) [HH, (3SR,4RS,5RS)[4[4(3-Benzyloxy-propoxy)-phenyl5-(naphthalen-2-ylmethoxy)-pperidin-3-ylmethanol hydrochloride] stands 8.22; under `COC[C@@H]1CNC[C@H](OCc2ccc3ccccc3c2)[C@H]1c1ccc(OCCCOCc2ccccc2)cc1` (relative stereo) [CC], 8.70; under `COc1ccccc1COCCCOc1ccc([C@H]2CCNC[C@@H]2OCc2cc(OC)c3ccccc3c2OC)cn1` (relative stereo) [TT], 9.30.
For `c1ccc(COCCCOc2ccc([C@H]3CCNC[C@@H]3OCc3ccc4ccc(OCCN5CCOCC5)cc4c3)cc2)cc1` (racemic) [N, 4-[2-[7-[(3RS,4RS)-4-[4-(3-benzyloxy-propoxy)-phenyl]-piperidin-3-yloxymethyl]-naphthalen-2-yloxy]-ethyl]-morpholine hydrochloride (1:2)] the value was 7.92; for `c1ccc(COCCCOc2ccc([C@@H]3[C@@H](OCc4ccc5ccccc5c4)CNC[C@H]3OCCN3CCOCC3)cc2)cc1` (racemic) [Y, 4-{2-[(3RS,4RS,5SR)-4-[4-(3-benzyloxy-propoxy)-phenyl]-3-(naphthalen-2-ylmethoxy)-piperidin-5-yloxy]-ethyl}-morpholine], 8.52; for `c1ccc(SCCCc2ccc([C@H]3CCNC[C@@H]3OCc3ccc4ccccc4c3)cc2)cc1` (racemic) [G, (3RS,4RS)-3-(naphthalen-2-ylmethoxy)-4-[4-(3-phenylsulphanyl-propyl)-phenyl]-piperidine], 7.48.
`COc1ccccc1COCCCOc1ccc([C@H]2CCNC[C@@H]2OCc2ccc3cccnc3c2)cc1` (racemic) [OO, (3RS,4RS)-4-[4-[3-(2-methoxy-benzyloxy)-propoxy]-phenyl]-3-(quinolin-7-ylmethoxy)-piperidine]: the pIC50 was 8.22.

The record behind these values is patent US6051712A, “Piperidine derivatives having renin inhibiting activity” (Hoffmann-La Roche Inc., priority 1995, dated 2000).
